{
  "source": "patent US20060293388A1",
  "about": "“Pomolic acid, its isomers, derivatives and their uses, pharmaceutical composition, method to prepare the pharmaceutical composition and method for treating multidrug resistant tumours” (UNIVERSIDADE FEDERAL DO RIO DE JANEIRO, priority 2003, published 2006)",
  "key": {"K562": {"system": "K562", "test": "Growth/survival of K562 cells under vincristine and efflux pump modulators", "type": "cell-based"}, "Lucena 1": {"system": "Lucena 1", "test": "Growth/survival of Lucena 1 cells under vincristine and efflux pump modulators", "type": "cell-based", "description": "A possible reverser activity of pomolic acid was evaluated by testing its effect over Lucena 1 cell line, that over expresses P glycoprotein (Pgp)."}, "leukaemic cell line K562": {"system": "leukaemic cell line K562", "test": "Inhibition of cellular proliferation, 3H-thymidine incorporation, K562", "type": "cell-based", "conditions": "1, 10 and 100 μg/ml, 48 hours, FIG. 1, dose-dependent", "description": "FIG. 1 describes the inhibition of proliferation of the leukaemic cell line K562 by pomolic acid. […] The values represent the mean±standard error of three independent experiments. The inhibition of cellular proliferation was measured through the incorporation of radioactive thimidine (3H-TdR). For this, 180 μl of the cell suspensions are delivered in wells of a 96 wells culture microtiter plate, 2×10^4 cells/well, followed by incubation in a CO2 incubator, at 37° C. for 24 h. After this period, 20 μl of RPMI (control) or the drug to be tested at the concentrations of 100 μg/ml, 50 μg/ml, 25 μg/ml, 10 μg/ml and 1 μg/ml, are added to each group of four wells. Some wells, to be used as controls, receive 20 μl of DMSO in the same concentrations carried by the drugs. Eight hours before the end of the culture, the plate received a pulse of radioactive thymidine (1 μCi/well) and radioactivity was measured in a β counter. The percentage of inhibition was calculated taking as a reference cell growth in the presence of DMSO."}, "CaCo-2 cells": {"system": "CaCo-2 cells", "test": "Cytotoxicity, MTT method, CaCo-2", "type": "cell-based", "conditions": "1-100 μg/ml, 48 h, FIGS. 6 and 8", "description": "Caco-2 cells were treated with 1, 5, 10, 25, 50 and 100 μg/ml of pomolic acid for 48 hours. The values represent the mean±standard error of three independent experiments.\n(§1) The evaluation of the capacity of pomolic acid, its isomers and derivatives of killing tumor cells will be performed in vitro by the MTT method. The MTT method (3-4,5-dimethylthiazol-2yl)-2,5-diphenyltetrazolium bromide), that is based on the reduction of this compound to Formazam by the enzyme NADH dehydrogenase, Mosmann 1983, allows the quantification of the number of viable cells after treatment. For this, cells from the different cell lines will be processed as described above, distributed into plates and treated with the drug desired concentrations (1, 5, 10, 25, 50 or 100 μg/ml) or DMSO. After 48 h, 20 μl of MTT (5 mg/ml) will be added to each well and the plate will be incubated for a further 4 h in an incubator at 37° C. Following centrifugation, the formazan crystals will be dissolved with DMSO (200 μl/well) and the reading of the absorbance will be made in an ELISA reader at 570 nm wavelength. The percentage of inhibition of cellular viability will be calculated using as reference cells treated with DMSO.\n(§2) For this 180 μl of the cell suspension (CaCo-2 or MA104) will be delivered to wells in a 96 wells microtiter plate, 2×10^4 cells/well, and the plate incubated in a CO2 incubator at 37° C. for 24 h. […]"}, "HEp-2 (throat cancer)": {"system": "HEp-2 (throat cancer)", "test": "Cytotoxicity, HEp-2", "type": "cell-based", "source_text": "as §1\n(§3) Pomolic's acid activity was evaluated on cells sensitive to chemotherapeutic agents, such as leukaemic lines (K562 and HL-60), of lung cancer (A549) and throat (HEp-2), and on multidrug resistant of leukaemic origin (Lucena 1), of colon cancer (CaCo-2) and of monkey kidney (MA104). […]"}, "[1]": {"system": "resistant leukaemia cell line Lucena 1", "test": "Inhibition of cellular proliferation, 3H-thymidine incorporation, Lucena 1", "type": "cell-based", "description": "The values represent the mean±standard error of three independent experiments. […] The values represent the mean±standard error of three independent experiments. The inhibition of cellular proliferation was measured through the incorporation of radioactive thimidine (3H-TdR). For this, 180 μl of the cell suspensions are delivered in wells of a 96 wells culture microtiter plate, 2×10^4 cells/well, followed by incubation in a CO2 incubator, at 37° C. for 24 h. After this period, 20 μl of RPMI (control) or the drug to be tested at the concentrations of 100 μg/ml, 50 μg/ml, 25 μg/ml, 10 μg/ml and 1 μg/ml, are added to each group of four wells. Some wells, to be used as controls, receive 20 μl of DMSO in the same concentrations carried by the drugs. Eight hours before the end of the culture, the plate received a pulse of radioactive thymidine (1 μCi/well) and radioactivity was measured in a β counter. The percentage of inhibition was calculated taking as a reference cell growth in the presence of DMSO. […] The experimental design was the same one as described in example 1."}, "A549 (lung cancer)": {"system": "A549 (lung cancer)", "test": "Cytotoxicity, A549", "type": "cell-based", "source_text": "as §1, §3"}, "MA104 cells": {"system": "MA104 cells", "test": "Cytotoxicity, MTT method, MA104", "type": "cell-based, monkey", "conditions": "1-100 μg/ml, 48 h, FIGS. 7 and 8", "description": "Ma104 cells were treated with 1, 5, 10, 25, 50 and 100 μg/ml of pomolic acid for 48 hours. The values represent the mean±standard error of three independent experiments.\nas §1, §2"}, "HL-60 cells": {"system": "HL-60 cells", "test": "Cytotoxicity, MTT method, HL-60", "type": "cell-based", "conditions": "1-100 μg/ml, 48 hours, FIG. 5", "description": "HL-60 cells were treated with 1, 5, 10, 25, 50 and 100 μg/ml of pomolic acid for 48 hours. The values represent the mean±standard error of three independent experiments.\nas §1"}, "K562 cells": {"system": "K562 cells", "test": "DNA fragmentation (apoptosis induction) by propidium iodide flow cytometry", "type": "cell-based", "conditions": "18 h, mean ± SD of 3 experiments", "description": "The effect of pomolic acid over DNA fragmentation was studied through the analysis of the cell cycle by flow cytometry. For this 90 μl of cells (2.5×10^5 cells/well) will be distributed in 96 well plates to which it will be added 10 μl of medium, DMSO or the drugs under test (10, 25, 50 and 100 μg/ml). After the defined period of time the cells will be harvested and spun down at 240 g for 5 min. The pellet will be resuspended in 300 μl of a HFS solution (HFS: 0.1% of Triton x-100, 0.1% of sodium citrate and 50 μg/ml of propidium iodide) and incubated at 4° C. for 1 h, in the absence of light. The samples will be read in a flow cytometer (Becton and Dikinson) using the FL2 channel.\nThe K562 cells were treated with 10, 25, 50 and 100 μg/ml of pomolic acid for 18 h, lysed by HFS treatment (that contains propidium iodide) and DNA fragmentation was measured by FACS (flow cytometry). The values represent the mean±SD of three independent experiments."}},
  "data": [
    {"smiles": "CC[C@]1(O)C[C@H]2CN(CCc3c([nH]c4ccccc34)[C@@](C(=O)OC)(c3cc4c(cc3OC)N(C=O)[C@H]3[C@@](O)(C(=O)OC)[C@H](OC(C)=O)[C@]5(CC)C=CCN6CC[C@]43[C@@H]65)C2)C1", "note": "[VCR, vincristine]", "values": [
      {"measurement": "percentage of survival in relation to the untreated control, K562", "setting": "K562; Table 2, 3.75 nM", "value": "76 ± 7.8", "unit": "%"},
      {"measurement": "percentage of survival in relation to the untreated control, K562", "setting": "K562; Table 2, 7.5 nM", "value": "70.1 ± 11.8", "unit": "%"},
      {"measurement": "percentage of survival in relation to the untreated control, K562", "setting": "K562; Table 2, 15 nM", "value": "29.7 ± 7.7", "unit": "%"},
      {"measurement": "percentage of survival in relation to the untreated control, K562", "setting": "K562; Table 2, 30 nM", "value": "10 ± 2.9", "unit": "%"},
      {"measurement": "percentage of survival in relation to the untreated control, K562", "setting": "K562; Table 2, 60 nM", "value": "4.9 ± 3.1", "unit": "%"},
      {"measurement": "percentage of survival, K562", "setting": "K562; Table 3, VCR 60 nM", "value": "3.1 ± 1.5", "unit": "%"},
      {"measurement": "percentage of survival in relation to the untreated control, Lucena", "setting": "Lucena 1; Table 2, 3.75 nM", "value": "106.6 ± 3.8", "unit": "%"},
      {"measurement": "percentage of survival in relation to the untreated control, Lucena", "setting": "Lucena 1; Table 2, 7.5 nM", "value": "98.4 ± 1.9", "unit": "%"},
      {"measurement": "percentage of survival in relation to the untreated control, Lucena", "setting": "Lucena 1; Table 2, 15 nM", "value": "97.4 ± 6.3", "unit": "%"},
      {"measurement": "percentage of survival in relation to the untreated control, Lucena", "setting": "Lucena 1; Table 2, 30 nM", "value": "99.5 ± 6.5", "unit": "%"},
      {"measurement": "percentage of survival in relation to the untreated control, Lucena", "setting": "Lucena 1; Table 2, 60 nM", "value": "97.8 ± 3.7", "unit": "%"},
      {"measurement": "percentage of survival, Lucena", "setting": "Lucena 1; Table 3, VCR 60 nM", "value": "105.3 ± 7.3", "unit": "%"}
    ]},
    {"smiles": "C[C@@H]1CC[C@]2(C(=O)O)CC[C@]3(C)C(=CC[C@@H]4[C@@]5(C)CC[C@H](O)C(C)(C)[C@@H]5CC[C@]43C)[C@@H]2[C@]1(C)O", "note": "[pomolic acid]", "values": [
      {"measurement": "inhibition of proliferation of K562", "setting": "leukaemic cell line K562", "value": "inhibits"},
      {"measurement": "cytotoxic activity towards CaCo-2", "setting": "CaCo-2 cells", "value": "shows a cytotoxic activity"},
      {"measurement": "cytotoxic activity towards HEp-2", "setting": "HEp-2 (throat cancer)", "value": "shows a cytotoxic activity"},
      {"measurement": "inhibition of proliferation of Lucena", "setting": "[1]; 1, 10 and 100 μg/ml, 48 hours, FIGS. 2 and 3, dose-dependent", "value": "inhibits"},
      {"measurement": "inhibition of Lucena 1 growth in the presence of vincristine", "setting": "[1]; FIG. 2, 48 hours", "value": "inhibits Lucena's 1 growth in the presence of vincristine"},
      {"measurement": "killing of Lucena 1 in the absence of vincristine", "setting": "[1]; FIG. 3, 48 hours", "value": "kills Lucena 1 in the absence of vincristine"},
      {"measurement": "Pgp substrate", "setting": "[1]; concluded from activity on Pgp over-expressing Lucena 1 without vincristine", "value": "not a Pgp substrate"},
      {"measurement": "cytotoxic activity towards A549", "setting": "A549 (lung cancer)", "value": "shows a cytotoxic activity"},
      {"measurement": "cytotoxic activity towards MA104", "setting": "MA104 cells", "value": "shows a cytotoxic activity"},
      {"measurement": "cytotoxic activity towards HL-60", "setting": "HL-60 cells", "value": "shows a cytotoxic activity"},
      {"measurement": "Percentage of DNA fragmentation in K562 cells", "setting": "K562 cells; 10 μg/ml", "value": "4.31 ± 1.21", "unit": "%"},
      {"measurement": "Percentage of DNA fragmentation in K562 cells", "setting": "K562 cells; 25 μg/ml", "value": "13.72 ± 0.52", "unit": "%"},
      {"measurement": "Percentage of DNA fragmentation in K562 cells", "setting": "K562 cells; 50 μg/ml", "value": "29.93 ± 2.74", "unit": "%"},
      {"measurement": "Percentage of DNA fragmentation in K562 cells", "setting": "K562 cells; 100 μg/ml", "value": "74.88 ± 5.69", "unit": "%"}
    ]}
  ]
}
